The values that follow are results of earlier work, collected in patent US9446004B2, “Transdermal nicotine salt delivery system” (ALZA Corporation, priority 2005, dated 2016).

Like-named read-outs stand apart in the source and are kept apart here.

As a reminder, the pKa is the negative logarithm of the acid dissociation constant.

As to `CN1CCCC1c1cccnc1` (centres unmarked) [Nicotine], the pKa entry was “about 8” (first pKa) and approximately 3 (second pKa).
